The test system of assay [1] is Intracellular, mitochondrial reactive oxygen species (ROS). Briefly: Dihydrorhodamine-123 (DHR-123) assay of intracellular ROS. The assay is classed as cell-based. Particulars: Homo sapiens, HCEC, 2 hours. As to the method: Intracellular, mitochondrial reactive oxygen species (ROS) were assessed using the cell membrane permeable dihydrorhodamine-123 (DHR-123) assay (D23806; ThermoFisher Scientific, Waltham, MA, USA) according to the manufacturer's instructions. Measurements were made after exposing human corneal epithelial cells to H2O2, xanthohumol or DMSO only for 2 hours. For ROS staining, cells were incubated with 10 µM DHR-123 for 15 minutes. Nucleus staining was performed using Hoechst 33342 nucleic acid stain (H1399; ThermoFisher Scientific, Waltham, MA, USA). Randomly, a minimum of 3 images of every treatment group were acquired with a 20x fluorescence objective using the aforementioned Axio Observer 7. Results were expressed in percent of fluorescence intensity relative to the baseline measurement in the DMSO control group. For quantification of the fluorescence signals, the microscope software ZEN 3.0 (Carl Zeiss AG, Jena, Germany) was used.

For assay [2], the system named is human corneal epithelial cells. Briefly: cells. The assay is classed as cell-based. To be noted: Corneal epithelial cell, 24 h, read-out: cell viability. On the procedure:
Human corneal epithelial cells (hCEC; SCCE016; Merck Millipore, Burlington, MA, USA) were cultured in corneal epithelial cell growth medium with supplement mix (LGC Standards, Teddington, United Kingdom). Approximately 10,000 hCECs were seeded onto each well of a 96-well cell-culture dishes (NUNC, Langenselbold, Germany). Confluent cells were used for Water-soluble tetrazolium salt (WST-1) cell proliferation assays (Hoffmann-La Roche AG, Basel, Switzerland). After 24 hours of incubation with 100 µl of corneal epithelial cell growth medium without its supplement mix (LGC Standards, Teddington, United Kingdom), hCECs were treated with different concentrations of xanthohumol (XH; Selleckchem, Houston, TX, USA) dissolved in dimethyl sulfoxide (DMSO; Carl Roth AG, Karlsruhe, Germany). Control groups were treated with DMSO only. Following another 72 hours of incubation, the cells were incubated with the WST-1 solution for 30 minutes. Substrate turnover was measured with an ELISA reader at 450 nm (Spectramax 190; Molecular Devices, Sunnyvale, CA, USA) and a reference at 690 nm. To determine potential anti-oxidative effects of xanthohumol, hCECs were incubated and treated analogous to the above-mentioned WST-1 cell proliferation assay with minor modifications. […] Following another incubation of the hCECs for 24 hours, the WST-1 assay was further finalized according to the description above.

Assay [3] relates to hCEC. Briefly: Cell scratch assay (hCEC migration / wound healing in vitro). The assay is classed as cell-based, Human. As to the method: To analyze hCEC migration in vitro, cells were cultured in corneal epithelial cell growth medium with supplement mix until confluence of the cells of a 6-well cell culture plate. Following an incubation period of 24 hours in cell culture medium without supplements, 5 linear scratches were performed in each well using a 200 µl pipette tip (Eppendorf AG, Hamburg, Germany). The hCECs were then incubated prospectively under treatment with xanthohumol or DMSO as a control for up to 72 hours. Reference images were acquired at the beginning of the incubation period using the phase contrast mode on an Axio Observer 7 (Carl Zeiss AG, Jena, Germany). Every 24 hours, follow-up images of 4-5 different scratch sections were acquired. The size of the wound area was analyzed using a semi-automated analysis tool in ImageJ 1.53a (National Institute of Health, Bethesda, MD, USA).

In the next assay the test system is bovine corneas. The assay is described as follows: Corneal erosion assay on bovine corneas ex vivo. Particulars: up to 72 hours, every 12 hours, compared to the DMSO-treated control group. As to the method:
Furthermore, corneal epithelial cell wound healing was determined on bovine corneas ex vivo. Bovine globes were obtained from a local butchery following approval by the authority for waste management of animal carcasses (ID: DE 09 162 0066-219) and processed within 12 hours post-mortem. The bovine globes were washed in 10% w/v povidone-iodine for 5 minutes. A circular corneal epithelial erosion was created using an 8 mm trephine and a hockey knife (Katena Products Inc., Parsippany, NJ, USA). Subsequently, a sclerocorneal ring was excised with eye scissors (Katena Products Inc., Parsippany, NJ, USA) and transferred to a 60 mm cell culture plate. To acquire reference images of the corneal erosion, the wound area was stained with a 0.8 mg/ml fluorescein sodium solution and illuminated with blue light (approximate wavelength 490 nm). Images were acquired using a distance-fixed digital single lens reflex camera equipped with a macro lens (Canon Inc., Tokyo, Japan). Consequently, the sclerocorneal rings were incubated in Dulbecco's Modified Eagle's Medium (Bio&SELL GmbH, Feucht, Germany) supplemented with 50 IU penicillin/ml and 50 µg streptomycin/ml (Merck Millipore, Burlington, MA, USA) and xanthohumol or DMSO only. Follow-up images were acquired every 12 hours, the cell culture medium was renewed daily.

Assay [4] concerns hCEC. Briefly: BrdU cell proliferation ELISA. The assay is classed as cell-based. To be noted: Homo sapiens, 24 hours, hCECs, no significant change. On the procedure:
Proliferation of hCEC was determined using a 5-bromo-2'-deoxyuridine (BrdU) ELISA in accordance with the manufacturers' recommendations (Merck KGaA, Darmstadt, Germany). In brief, approximately 7,000 cells were seeded onto a 96-well cell culture plat e and incubated for 24h to achieve complete adherence of the cells. After 24 hours of incubation with 100 µl of corneal epithelial cell growth medium without its' supplement mix, hCECs were treated with xanthohumol dissolved in DMSO. Following another 24 hours of incubation with BrdU labeling solution, cells were fixed and incubated with anti-BrdU antibodies according to the manufacturer's recommendations. BrdU incorporation into the DNA of hCECs was quantified by absorbance measurement at 450 nm.

For assay [5], the system named is Human corneal epithelial cells (hCEC). The assay is described as follows: WST-1 cell viability assay. The assay is classed as cell-based. To be noted: 72 hours of incubation, hCECs, compared to the DMSO-treated control group. As to the method: Human corneal epithelial cells (hCEC; SCCE016; Merck Millipore, Burlington, MA, USA) were cultured in corneal epithelial cell growth medium with supplement mix (LGC Standards, Teddington, United Kingdom). Approximately 10,000 hCECs were seeded onto each well of a 96-well cell-culture dishes (NUNC, Langenselbold, Germany). Confluent cells were used for Water-soluble tetrazolium salt (WST-1) cell proliferation assays (Hoffmann-La Roche AG, Basel, Switzerland). After 24 hours of incubation with 100 µl of corneal epithelial cell growth medium without its supplement mix (LGC Standards, Teddington, United Kingdom), hCECs were treated with different concentrations of xanthohumol (XH; Selleckchem, Houston, TX, USA) dissolved in dimethyl sulfoxide (DMSO; Carl Roth AG, Karlsruhe, Germany). Control groups were treated with DMSO only. Following another 72 hours of incubation, the cells were incubated with the WST-1 solution for 30 minutes. Substrate turnover was measured with an ELISA reader at 450 nm (Spectramax 190; Molecular Devices, Sunnyvale, CA, USA) and a reference at 690 nm.

The values below come from patent EP4104818A1, “OPHTHALMIC COMPOSITION COMPRISING XANTHOHUMOL” (Skeye Pharma GbR, priority 2021, dated 2022).

One may read the viability as a read-out of living cells in per cent, often relative to untreated cells.

The structures appear in SMILES notation.

`OO` [H2O2, hydrogen peroxide, reference compound]: in assay [1] (H2O2 100 µM only, compared to the control group, read-out: DHE-123 fluorescence), the activity at 100 µM came out at 149 ± 9%. Besides, the viability at 100 µM in assay [2] amounted to 79 ± 14%.

Regarding `COc1cc(O)c(CC=C(C)C)c(O)c1C(=O)/C=C/c1ccc(O)cc1` [xanthohumol, 1-[2,4-Dihydroxy-6-methoxy-3-(3-methyl-but-2-enyl)-phenyl]-3-(4-hydroxyphenyl)-propenon], the wound area in the assay on hCEC [3] (1 µM, 72 hours of incubation, control group 73 ± 9%) stood at 63 ± 14%; in the assay with hCEC [3] (2.5 µM, 72 hours of incubation, control group 73 ± 9%) it was 58 ± 18%; with hCEC [3] (2.5 µM, after 48 hours, control group 76 ± 7%), 66 ± 11%. Besides, the speed of re-epithelialization result with bovine corneas (1 µM) and with bovine corneas (2.5 µM) was “did not show any significant difference” throughout. In addition, the activity at 1 µM amounted to 112 ± 26% with hCEC [4] (1 µM) and 97 ± 16% in assay [1] (1 µM xanthohumol with H2O2 100 µM, relative to the DMSO control group, read-out: DHR-123 fluorescence). In addition, the activity at 2.5 µM turned out to be 107 ± 16% in the assay with hCEC [4] (2.5 µM) and 95 ± 26% in assay [1] (2.5 µM xanthohumol with H2O2 100 µM, relative to the DMSO control group, read-out: DHR-123 fluorescence). Besides, the activity at 5 µM in the assay with hCEC [4] (5 µM) amounted to 95 ± 8%. The results for the viability at 1 µM in assay [5] (1 µM) and in assay [2] were 144 ± 26% and 91 ± 11%, respectively. The figures for the viability at 2.5 µM in assay [5] (2.5 µM) and in assay [2] were 127 ± 11% and 96 ± 4%, respectively. In assay [5] (5 µM, not significant), the viability at 5 µM is 121 ± 24%.
